In patent US11613558B2, “Peptides and pharmaceutical compositions for treating eye diseases” (Yuyu Pharma, Inc., priority 2018, dated 2023):
Square brackets hold non-standard residues; d marks the D form. Peptide text beside a SMILES is read from it. ξ: configuration not given here. Hyp = O=C(O)[C@@H]1C[C@@H](O)CN1; Ile(3ξ) = CCC(C)[C@H](N)C(=O)O; Thr(3ξ) = CC(O)[C@H](N)C(=O)O

Columns and labels:
[1] = system: rats with dry eye syndrome (extraorbital lacrimal gland excision, ELGE); assay: Amount of tear secretion (Schirmer test, cobalt chloride paper) in ELGE rats with dry eye syndrome; assay type: in vivo, rat; conditions: for Change in amount of tear secretion as compared with the ELGE control group: 3% solution as printed, after administration for 14 days; for Tear Volumes, Day 7 / Tear Volumes, Day 14: Table 4, study of YDE-001 to YDE-028, ELGE rats, 3 mg/ml, 5 μl/eye twice daily; for Tear Volumes, Day 7: day 7 of administration; for Tear Volumes, Day 14: day 14 of administration
From the text: (§1) In order to evaluate the eye protection effect on dry eye syndrome by YDE-001 to YDE-028 prepared in Example 1, a total of 320 Sprague-Dawley-type male rats (OrientBio, Seungnam, Korea) were adapted for 7 days. Thereafter, dry eye syndrome was induced in 264 test rats through extraorbital lacrimal gland excision (hereinafter, ELGE). 8 test rats without the eye abnormality were subjected to a sham operation as a control group.
(§2) The rat was systemically anesthetized by inhaling a mixed gas of 2% to 3% of isoflurane (Hana Pharm. Co., Hwasung, Korea), 70% of N2O, and 28.6% of O2 using a rodent anesthesia machine (Surgivet, Waukesha, Wis., USA) and a ventilator (Model 687, Harvard Apparatus, Cambridge, UK). Thereafter, the extraorbital lacrimal gland located in the subdermal area above the masseter muscle and […] was excised through a transverse incision in a size of 10 mm on the anterior part of the left ear tragus. The skin was sutured by a general method. […] After 6 days from the ELGE operation, it was checked through the Schirmer test by measuring the amount of tear secretion whether dry eye syndrome had been induced. Meanwhile, each rat of the control group with the sham operation was checked for the presence and location of the extraorbital lacrimal gland through a skin incision, and the skin was then sutured without the excision thereof (FIG. 4).
(§3) In addition, in order to evaluate the eye protection effect on dry eye syndrome by YDE-029 to YDE-043 prepared in Example 1, a total of 200 Sprague-Dawley-type male rats (OrientBio, Seungnam, Korea) were adapted for 7 days. Dry eye syndrome was induced in 165 test rats through the ELGE. 8 test rats without the eye abnormality were subjected to the sham operation as a control group. The ELGE was carried out as described above.
(§4) For YDE-001 to YDE-028, YY-102 and the 28 YDE-series were each dissolved in physiological saline at a concentration of 3 mg/ml and administered at a dose of 5 μl/eye at 9:30 am and 3:30 pm daily for 14 days after 7 days from the ELGE operation for a total of 28 times. The DS solution was dissolved in physiological saline at a concentration of 30 mg/ml and administered at a dose of […] twice a day for 14 days after 7 days from the ELGE operation for a total of 28 times. For the sham control and the ELGE control groups, the same stimulation as the administration was applied. In order to prevent excessive eye dryness, the same volume of physiological saline was applied in the same manner in place of the test substances.
as §4, with “Further, for YDE-029 to YDE-043,” for “For YDE-001 to YDE-028,”, “YDE-029 to YDE-043, YY-102 and” for “YDE-001 to YDE-028, YY-102 and”, “and the 15 YDE-series were” for “and the 28 YDE-series were”, “the test substances (FIG. 7).” for “the test substances.”
After 6 days from the ELGE surgery, the changes in the amount of tear secretion were measured at day 7 and day 14 after the administration of YDE-001 to YDE-043. The amount of tear secretion was measured by the […] travel distance of tears absorbed by cobalt chloride paper in a size of 1×15 mm (Toyo Roshi Kaisha, Japan).
The cobalt chloride paper was placed in the lateral canthus of a rat for 60 seconds to absorb tears (FIG. 9). The length of the area absorbed from the corner of the cobalt chloride paper was measured with an electronic digital caliper (Mytutoyo, Tokyo, Japan) (FIG. 8).

[2] = system: cornea of rats with dry eye syndrome (ELGE); assay: Corneal permeability of fluorescent dye (corneal damage) in ELGE rats with dry eye syndrome; assay type: in vivo, rat; conditions: Table 6, study of YDE-001 to YDE-028, 3 mg/ml, 5 μl/eye twice daily, day 14
From the text: as §1, §2, §3, §4
as §4, with “Further, for YDE-029 to YDE-043,” for “For YDE-001 to YDE-028,”, “YDE-029 to YDE-043, YY-102 and” for “YDE-001 to YDE-028, YY-102 and”, “and the 15 YDE-series were” for “and the 28 YDE-series were”, “the test substances (FIG. 7).” for “the test substances.”
After YDE-001 to YDE-028 were each administered to the eyes […], the changes in the corneal permeability were checked.
In order to measure the corneal permeability, Zolethyl 50™ (Virbac Lab., Carros, France), an animal anesthetic, was intraperitoneally injected at a dose of 25 mg/kg. Thereafter, saline containing a 1% (v/v) fluorescent solution (fluorescein sodium salt, Tokyo Kasei Kogyo Co., Tokyo, Japan) was applied to the eyes at a dose of 5 μl/eye. The eyes thus treated were closed and fixed with a tape. After 1 hour, the remaining fluorescent solution was removed using a cotton swab (FIG. 12). […]

[3] = Stability in aqueous solution under long-term storage conditions (related substances); assay type: physicochemical; conditions: 25° C., 75% RH
Procedure: In order to confirm the stability of each test substance in an aqueous solution, […] of each sample was dissolved in 1 ml of water to a concentration of 1 mg/ml, which was then charged to a glass vial, plugged with a rubber cap, sealed with an aluminum cap, and stored under long-term storage conditions (25° C., 75% RH). The stability of the test substance was evaluated by measuring the amount of related substances at the time of one week, two weeks, four weeks, eight weeks, and twelve weeks under the long-term storage conditions.

| SMILES | Change in amount of tear secretion as compared with the ELGE control group ([1]; study of YDE-001 to YDE-028) | Change in amount of tear secretion as compared with the ELGE control group ([1]; study of YDE-029 to YDE-043) | Permeability of fluorescent dye [2] [%] | Amount of related substances (after 12 weeks) [3] [%] | Tear Volumes, Day 7 [1] [mm^3] | Tear Volumes, Day 14 [1] [mm^3] |
| --- | --- | --- | --- | --- | --- | --- |
| O=c1ccn([C@@H]2O[C@H](COP(=O)(O)OP(=O)(O)OP(=O)(O)OP(=O)(O)OC[C@H]3O[C@@H](n4ccc(=O)[nH]c4=O)[C@H](O)[C@@H]3O)[C@@H](O)[C@H]2O)c(=O)[nH]1 [DS, diquafosol sodium, reference compound] | increased | increased | – | – | – | – |
| CC(C)C[C@H](NC(=O)CNC(=O)[C@H](CCC(=O)O)NC(=O)[C@H](CCC(N)=O)NC(=O)CNC(=O)[C@@H]1C[C@@H](O)CN1)C(=O)N[C@@H](C)C(=O)NCC(=O)N1CCC[C@H]1C(=O)N[C@@H](CCCCN)C(=O)O [YDE-001] (H-[Hyp]GQEGLAGPK-OH) | – | – | 25.49 ± 11.62 | 3.92 | 4.88 ± 1.62 | 5.92 ± 2.19 |
| CC(C)C[C@H](NC(=O)CNC(=O)[C@H](CC(N)=O)NC(=O)[C@H](CCC(N)=O)NC(=O)CNC(=O)[C@@H]1C[C@@H](O)CN1)C(=O)N[C@@H](C)C(=O)NCC(=O)N1CCC[C@H]1C(=O)N[C@@H](CCCCN)C(=O)O [YDE-002] (H-[Hyp]GQNGLAGPK-OH) | – | – | 38.26 ± 11.25 | 4.93 | 3.84 ± 1.16 | 5.01 ± 1.67 |
| CC(C)C[C@H](NC(=O)CNC(=O)[C@H](CCC(N)=O)NC(=O)[C@H](CCC(N)=O)NC(=O)CNC(=O)[C@@H]1C[C@@H](O)CN1)C(=O)N[C@@H](C)C(=O)NCC(=O)N1CCC[C@H]1C(=O)N[C@@H](CCCCN)C(=O)O [YDE-003] (H-[Hyp]GQQGLAGPK-OH) | – | – | 40.45 ± 6.46 | 6.86 | 4.13 ± 1.76 | 4.88 ± 1.57 |
| CC(C)C[C@H](NC(=O)CNC(=O)[C@H](Cc1cnc[nH]1)NC(=O)[C@H](CCC(N)=O)NC(=O)CNC(=O)[C@@H]1C[C@@H](O)CN1)C(=O)N[C@@H](C)C(=O)NCC(=O)N1CCC[C@H]1C(=O)N[C@@H](CCCCN)C(=O)O [YDE-004] (H-[Hyp]GQHGLAGPK-OH) | – | – | 35.05 ± 11.74 | 2.11 | 3.42 ± 1.06 | 5.19 ± 1.84 |
| CC(C)C[C@H](NC(=O)CNC(=O)[C@H](CCCCN)NC(=O)[C@H](CCC(N)=O)NC(=O)CNC(=O)[C@@H]1C[C@@H](O)CN1)C(=O)N[C@@H](C)C(=O)NCC(=O)N1CCC[C@H]1C(=O)N[C@@H](CCCCN)C(=O)O [YDE-005] (H-[Hyp]GQKGLAGPK-OH) | – | – | 37.98 ± 11.53 | 2.97 | 3.85 ± 0.93 | 5.08 ± 1.91 |
| CC(C)C[C@H](NC(=O)CNC(=O)[C@H](CO)NC(=O)[C@H](CCC(N)=O)NC(=O)CNC(=O)[C@@H]1C[C@@H](O)CN1)C(=O)N[C@@H](C)C(=O)NCC(=O)N1CCC[C@H]1C(=O)N[C@@H](CCCCN)C(=O)O [YDE-006] (H-[Hyp]GQSGLAGPK-OH) | – | – | 33.23 ± 13.26 | 3.67 | 3.44 ± 1.69 | 5.35 ± 1.68 |
| CC(C)C[C@H](NC(=O)CNC(=O)[C@@H](NC(=O)[C@H](CCC(N)=O)NC(=O)CNC(=O)[C@@H]1C[C@@H](O)CN1)C(C)O)C(=O)N[C@@H](C)C(=O)NCC(=O)N1CCC[C@H]1C(=O)N[C@@H](CCCCN)C(=O)O (stereo partly shown) [YDE-007] (H-[Hyp]GQ[Thr(3ξ)]GLAGPK-OH) | – | – | 32.79 ± 10.77 | 3.76 | 3.91 ± 1.28 | 5.45 ± 1.26 |
| CC(C)C[C@H](NC(=O)CNC(=O)[C@H](C)NC(=O)[C@H](CCC(N)=O)NC(=O)CNC(=O)[C@@H]1C[C@@H](O)CN1)C(=O)N[C@@H](C)C(=O)NCC(=O)N1CCC[C@H]1C(=O)N[C@@H](CCCCN)C(=O)O [YDE-008] (H-[Hyp]GQAGLAGPK-OH) | – | – | 20.32 ± 11.87 | 4.42 | 4.57 ± 1.25 | 6.10 ± 2.36 |
| CC(C)C[C@H](NC(=O)CNC(=O)[C@@H](NC(=O)[C@H](CCC(N)=O)NC(=O)CNC(=O)[C@@H]1C[C@@H](O)CN1)C(C)C)C(=O)N[C@@H](C)C(=O)NCC(=O)N1CCC[C@H]1C(=O)N[C@@H](CCCCN)C(=O)O [YDE-009] (H-[Hyp]GQVGLAGPK-OH) | did not show any significant changes | – | 41.50 ± 7.86 | 4.71 | 3.76 ± 1.21 | 4.54 ± 1.11 |
| CCC(C)[C@H](NC(=O)[C@H](CCC(N)=O)NC(=O)CNC(=O)[C@@H]1C[C@@H](O)CN1)C(=O)NCC(=O)N[C@@H](CC(C)C)C(=O)N[C@@H](C)C(=O)NCC(=O)N1CCC[C@H]1C(=O)N[C@@H](CCCCN)C(=O)O (stereo partly shown) [YDE-010] (H-[Hyp]GQ[Ile(3ξ)]GLAGPK-OH) | did not show any significant changes | – | 49.29 ± 12.06 | 4.39 | 3.42 ± 1.31 | 4.35 ± 1.36 |
| CC(C)C[C@H](NC(=O)CNC(=O)[C@H](Cc1ccccc1)NC(=O)[C@H](CCC(N)=O)NC(=O)CNC(=O)[C@@H]1C[C@@H](O)CN1)C(=O)N[C@@H](C)C(=O)NCC(=O)N1CCC[C@H]1C(=O)N[C@@H](CCCCN)C(=O)O [YDE-012] (H-[Hyp]GQFGLAGPK-OH) | – | – | 31.01 ± 11.38 | 3.57 | 3.68 ± 0.99 | 5.67 ± 1.86 |
| CC(C)C[C@H](NC(=O)CNC(=O)[C@H](Cc1ccc(O)cc1)NC(=O)[C@H](CCC(N)=O)NC(=O)CNC(=O)[C@@H]1C[C@@H](O)CN1)C(=O)N[C@@H](C)C(=O)NCC(=O)N1CCC[C@H]1C(=O)N[C@@H](CCCCN)C(=O)O [YDE-013] (H-[Hyp]GQYGLAGPK-OH) | – | – | 32.24 ± 7.84 | 5.92 | 5.27 ± 1.50 | 5.49 ± 1.92 |
